Laboratory results reported in patent US11453673B2, “Substituted [1,2,4]triazolo[4,3-a]pyrazines as phosphodiesterase inhibitors” (Eli Lilly and Company, priority 2018, dated 2022).

Columns and labels:
Assay type in all cases: biochemical
human PDE6A/6B = human PDE6A/6B (Homo sapiens (Human), UniProt P16499+P35913); experiment: PDE enzyme assay using [3H]cGMP as substrate (SPA); details: [3H]cGMP 80 nM; read-out: PDE6AB IC50
Excerpt: (§1) The nucleotide sequences encoding full-length human PDE1A (NP_001003683.1) and PDE1C (NP_005011.1) are inserted into pFastBac1 (Invitrogen) vector with an N-terminal HIS tag. The nucleotide sequences encoding full-length human PDE4D (NP_006194.2) and catalytic domain (residue 641-1141) of PDE3A (NP_000912.3) are inserted into pFastBac1 (Invitrogen) vector with a C-terminal HIS tag. The nucleotide sequences encoding full-length human PDE6A (NP_000431.2) and PDE6B (AAH00249.1) are inserted into pFastBacDual (Invitrogen) vector with an N-terminal HIS tag and N-terminal Flag tag, respectively, for production of PDE6A/6B dimer. Baculovirus generation and protein expression in Sf9 cells are carried out according to the protocol of Bac-to-Bac Baculovirus Expression system (Invitrogen). The nucleotide sequence encoding full-length human PDE1B (NP_000915.1) is inserted into pIEX4 (Novagen) with a C-terminal HIS tag, and both protein productions in Sf9 cells are carried out according to the vendor's protocol (Novagen). The His tagged PDE proteins are purified using Ni-NTA agarose (Qiagen) followed by size exclusion chromatography on a SUPERDEX© 200 column (GE Healthcare) in storage buffer (20 mM Tris-HCl, pH 7.5, 150 mM NaCl, 10% Glycerol). The Flag tagged PDE proteins including PDE6A/6B are purified using anti-Flag M2-agarose (Sigma), after purification through NiNTA column chromatography and eluted in storage buffer (50 mM Tris-HCl, pH 7.5, 150 mM NaCl, 10% Glycerol, 0.1 mg/ml Flag peptide). All purified proteins are stored at −80° C. in small aliquots.
(§2) All 3′, 5′ cyclic nucleotide PDE enzyme activities are measured with a radiometric enzyme assay based on SPA detection system. Compounds to be tested are diluted in pure DMSO using ten point concentration response curves. Maximal compound concentration in the reaction mixture is either 10 or 100 μM. Compounds at the appropriate concentration are pre-incubated with either of the PDE enzymes for 30 minutes before the reaction is started by the addition of substrate. Reactions are allowed to proceed for 60 minutes at room temperature. Next, reactions are stopped by addition of SPA beads. Samples are read 12 hours later in a MICROBETA™ TRILUX© Counter. IC50 values are calculated by plotting the normalized data vs. log [compound] and fitting the data using a four parameter logistic equation.
The following phosphodiesterase activities are measured using [3H]cGMP as reaction substrate: human PDE6A/6B. The catalytic active form of human PDE6 is a dimer composed of an a (human PDE6A) and […] (human PDE6B). The dimer of human PDE6A/6B is produced by the coexpression and purification strategy, using two purification steps, i.e., NiNTA and anti-FLAG Sepharose chromatography. The assay buffer is prepared to give a final concentration in the assay of 50 mM Tris-HCl, 8.3 mM MgCl2, 1.7 mM EDTA and 0.1% BSA at pH 7.5. The final enzyme concentration is 5 nM. The reactions are started by addition of the substrate, [3H]cGMP, to give a final concentration of 80 nM.

[1] = target: human PDE3A (catalytic domain) (Homo sapiens (Human), UniProt Q14432); experiment: PDE enzyme assay using [3H]cAMP as substrate (SPA); details: [3H]cAMP 47 nM
Excerpt: as §1, §2
(§3) The following PDE activities are measured using [3H]cAMP as reaction substrate: human PDE3A (catalytic domain) and human PDE4D. Both enzymes are cloned and purified following standard procedures. The assay buffer is prepared to give a final concentration in the assay of 50 mM Tris-HCl, 8.3 mM MgCl2, 1.7 mM EDTA and 0.1% BSA at pH 7.5. Final enzyme concentrations are 0.008 and 0.021 nM for PDE3A and PDE4D, respectively. Reactions are started by addition of the substrate, [3H]cAMP, to give a final concentration of 47 nM.

human PDE4D = human PDE4D (Homo sapiens (Human), UniProt Q08499); experiment: PDE enzyme assay using [3H]cAMP as substrate (SPA); details: Mean ± standard deviation; [3H]cAMP 47 nM
Excerpt: as §1, §2, §3

human PDE1C = human PDE1C (Homo sapiens (Human), UniProt Q14123); experiment: Ca2+-calmodulin dependent PDE enzyme assay (radiometric SPA, [3H]cAMP); details: Mean ± standard deviation; [3H]cAMP 47 nM; read-out: PDE 1C IC50
Excerpt: as §1, §2
(§4) PDE1B, PDE1A, and PDE1C are cloned and purified following standard protein generation procedures. […] The final enzyme concentration is 0.25, 0.074 and 0.0012 nM, for PDE1A, PDE1B and PDE1C respectively. The reactions are started by addition of the substrate, [^3H]cAMP, to give a final concentration of 47 nM.

human PDE1A = human PDE1A (Homo sapiens (Human), UniProt P54750); experiment: as above; details: Mean ± standard deviation; [3H]cAMP 47 nM; read-out: PDE 1A IC50
Excerpt: as §1, §2, §4

human PDE1B = human PDE1B (Homo sapiens (Human), UniProt Q01064); experiment: as above; details: Mean ± standard deviation; [3H]cAMP 47 nM; read-out: PDE 1B IC50
Excerpt: as §1, §2, §4

Sequence of human PDE6A/6B (P16499 whole entry, the tested form may be a part): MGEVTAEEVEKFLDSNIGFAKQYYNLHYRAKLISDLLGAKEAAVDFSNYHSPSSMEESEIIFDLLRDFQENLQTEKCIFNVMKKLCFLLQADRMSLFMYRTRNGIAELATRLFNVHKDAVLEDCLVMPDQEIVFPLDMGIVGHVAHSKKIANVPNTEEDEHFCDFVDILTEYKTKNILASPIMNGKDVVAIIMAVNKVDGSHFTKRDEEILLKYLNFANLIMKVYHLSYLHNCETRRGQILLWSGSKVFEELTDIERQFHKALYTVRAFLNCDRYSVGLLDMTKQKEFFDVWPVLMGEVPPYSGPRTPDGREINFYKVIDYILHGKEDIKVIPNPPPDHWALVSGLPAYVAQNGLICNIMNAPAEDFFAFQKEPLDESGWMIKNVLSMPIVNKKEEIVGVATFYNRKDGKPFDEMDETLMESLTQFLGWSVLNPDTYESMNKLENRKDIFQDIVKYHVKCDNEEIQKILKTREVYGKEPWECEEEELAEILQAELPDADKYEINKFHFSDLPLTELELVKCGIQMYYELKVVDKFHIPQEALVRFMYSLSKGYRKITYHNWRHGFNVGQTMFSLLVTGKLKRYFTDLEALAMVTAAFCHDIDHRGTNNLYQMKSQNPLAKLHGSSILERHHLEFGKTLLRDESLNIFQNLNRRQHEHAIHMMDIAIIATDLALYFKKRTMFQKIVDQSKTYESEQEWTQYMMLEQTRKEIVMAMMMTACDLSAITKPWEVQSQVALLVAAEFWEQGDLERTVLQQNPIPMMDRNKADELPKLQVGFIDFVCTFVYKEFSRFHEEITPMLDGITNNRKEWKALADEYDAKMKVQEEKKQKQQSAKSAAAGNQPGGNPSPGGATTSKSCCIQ
Sequence of human PDE6A/6B (P35913 whole entry, the tested form may be a part): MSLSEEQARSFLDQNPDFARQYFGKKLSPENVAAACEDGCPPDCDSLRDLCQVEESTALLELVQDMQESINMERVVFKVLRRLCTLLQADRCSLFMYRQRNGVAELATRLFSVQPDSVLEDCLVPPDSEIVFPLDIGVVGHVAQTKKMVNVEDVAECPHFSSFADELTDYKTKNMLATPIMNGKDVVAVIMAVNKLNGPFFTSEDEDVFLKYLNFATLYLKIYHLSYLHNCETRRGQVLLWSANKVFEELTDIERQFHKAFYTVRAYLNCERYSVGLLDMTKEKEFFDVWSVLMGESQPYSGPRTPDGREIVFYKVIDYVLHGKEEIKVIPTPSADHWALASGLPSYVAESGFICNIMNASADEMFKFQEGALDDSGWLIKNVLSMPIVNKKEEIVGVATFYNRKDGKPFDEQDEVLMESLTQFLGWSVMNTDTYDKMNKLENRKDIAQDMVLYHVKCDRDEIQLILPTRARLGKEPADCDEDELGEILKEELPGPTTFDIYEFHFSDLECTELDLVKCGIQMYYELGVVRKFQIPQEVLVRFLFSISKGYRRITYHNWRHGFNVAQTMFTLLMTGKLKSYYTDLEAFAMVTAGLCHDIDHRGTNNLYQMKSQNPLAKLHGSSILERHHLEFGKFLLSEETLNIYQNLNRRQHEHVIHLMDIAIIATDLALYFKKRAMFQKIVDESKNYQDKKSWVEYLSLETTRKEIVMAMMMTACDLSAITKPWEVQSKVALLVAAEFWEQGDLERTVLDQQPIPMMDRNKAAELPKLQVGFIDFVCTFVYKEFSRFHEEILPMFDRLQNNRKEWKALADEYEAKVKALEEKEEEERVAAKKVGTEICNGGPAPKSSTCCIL
Sequence of human PDE3A (catalytic domain) (Q14432 641-1141): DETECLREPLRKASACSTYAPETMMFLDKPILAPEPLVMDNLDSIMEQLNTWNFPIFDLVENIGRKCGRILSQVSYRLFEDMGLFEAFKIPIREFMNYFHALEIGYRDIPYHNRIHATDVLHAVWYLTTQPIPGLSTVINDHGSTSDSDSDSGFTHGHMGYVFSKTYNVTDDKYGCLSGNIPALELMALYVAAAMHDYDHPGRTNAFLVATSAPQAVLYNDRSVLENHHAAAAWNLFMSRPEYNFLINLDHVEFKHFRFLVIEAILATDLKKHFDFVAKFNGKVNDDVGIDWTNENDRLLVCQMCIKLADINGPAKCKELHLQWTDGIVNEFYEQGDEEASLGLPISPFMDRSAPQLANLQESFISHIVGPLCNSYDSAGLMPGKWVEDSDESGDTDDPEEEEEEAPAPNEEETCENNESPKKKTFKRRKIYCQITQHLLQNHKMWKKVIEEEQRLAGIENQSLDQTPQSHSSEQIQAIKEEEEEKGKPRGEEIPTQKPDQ
Sequence of human PDE4D (Q08499 other isoform, or with tags, fused parts or gaps): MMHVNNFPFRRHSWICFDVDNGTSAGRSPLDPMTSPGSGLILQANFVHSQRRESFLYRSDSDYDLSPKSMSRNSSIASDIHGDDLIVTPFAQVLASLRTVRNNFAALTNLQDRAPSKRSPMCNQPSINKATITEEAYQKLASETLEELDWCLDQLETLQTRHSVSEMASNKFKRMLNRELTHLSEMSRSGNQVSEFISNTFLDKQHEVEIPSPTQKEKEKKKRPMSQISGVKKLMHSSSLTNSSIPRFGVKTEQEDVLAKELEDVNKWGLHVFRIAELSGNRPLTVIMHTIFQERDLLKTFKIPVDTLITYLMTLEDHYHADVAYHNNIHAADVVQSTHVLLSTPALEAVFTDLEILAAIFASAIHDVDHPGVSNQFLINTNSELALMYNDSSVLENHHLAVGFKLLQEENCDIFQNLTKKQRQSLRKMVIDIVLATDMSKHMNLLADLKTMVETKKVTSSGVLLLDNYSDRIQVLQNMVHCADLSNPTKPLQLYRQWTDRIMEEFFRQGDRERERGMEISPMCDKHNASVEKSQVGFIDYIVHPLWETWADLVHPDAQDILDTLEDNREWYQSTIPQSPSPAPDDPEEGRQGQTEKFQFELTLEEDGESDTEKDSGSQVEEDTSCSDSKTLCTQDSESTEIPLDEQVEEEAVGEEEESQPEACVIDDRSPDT

| IC50 (human PDE6A/6B) | IC50 [1] | IC50 (human PDE4D) | Structure (SMILES) | IC50 (human PDE1C) | IC50 (human PDE1A) | IC50 (human PDE1B) |
| --- | --- | --- | --- | --- | --- | --- |
| > 10 µM | > 100 µM | 30.9 µM | Cc1c(C)n2c(C3(C4CC4)CC3)nnc2c(=O)n1CC1CCCCO1 (racemic) [Example 6, 3-(1-cyclopropylcyclopropyl)-5,6-dimethyl-7-(tetrahydropyran-2-ylmethyl)-[1,2,4]triazolo[4,3-a]pyrazin-8-one] | 0.00188 ± 0.00056 µM |  |  |
| > 10 µM | > 100 µM | 46.5 µM | CCC1(c2nnc3c(=O)n(CC4CCCCO4)c(C)c(C)n23)CC1 (racemic) [Example 7, 3-(1-Ethylcyclopropyl)-5,6-dimethyl-7-(tetrahydropyran-2-ylmethyl)-[1,2,4]triazolo[4,3-a]pyrazin-8-one] | 0.00776 µM |  |  |
| 2.66 µM | > 100 µM | 57.7 µM | Cc1c(C)n2c(C3(C)CC3)nnc2c(=O)n1CC1CCCCO1 (racemic) [Example 8, 5,6-Dimethyl-3-(1-methylcyclopropyl)-7-(tetrahydropyran-2-ylmethyl)-[1,2,4]triazolo[4,3-a]pyrazin-8-one] |  |  |  |
| > 10 µM | > 100 µM | 33.1 µM | Cc1c(C)n2c(C3(C4CC4)CC3)nnc2c(=O)n1CC1CCCCO1 (single isomer, unassigned) [Example 9, 3-(1-Cyclopropylcyclopropyl)-5,6-dimethyl-7-(tetrahydropyran-2-ylmethyl)-[1,2,4]triazolo[4,3-a]pyrazin-8-one] | 0.000958 ± 0.000487 µM |  |  |
| > 10 µM | > 100 µM | 21.4 µM | Cc1c(C)n2c(C3(C4CC4)CC3)nnc2c(=O)n1CC1CCCCO1 (single isomer, unassigned) [Example 10] | 0.002 ± 0.000311 µM |  |  |
| > 10 µM | > 100 µM | 67.2 µM | CCC1(c2nnc3c(=O)n(CC4CCCCO4)c(C)c(C)n23)CC1 (single isomer, unassigned) [Example 11, 3-(1-Ethylcyclopropyl)-5,6-dimethyl-7-(tetrahydropyran-2-ylmethyl)-[1,2,4]triazolo[4,3-a]pyrazin-8-one] | 0.00477 ± 6e-05 µM | 0.0132 µM |  |
| 7.62 µM | > 100 µM | 31 µM | CCC1(c2nnc3c(=O)n(CC4CCCCO4)c(C)c(C)n23)CC1 (single isomer, unassigned) [Example 12, 3-(1-Ethylcyclopropyl)-5,6-dimethyl-7-(tetrahydropyran-2-ylmethyl)-[1,2,4]triazolo[4,3-a]pyrazin-8-one] | 0.0132 µM | 0.0446 µM |  |
| > 10 µM | > 100 µM | > 100 µM | Cc1c(C)n2c(C3(C)CC3)nnc2c(=O)n1CC1CCCCO1 (single isomer, unassigned) [Example 13, 5,6-Dimethyl-3-(1-methylcyclopropyl)-7-(tetrahydropyran-2-ylmethyl)-[1,2,4]triazolo[4,3-a]pyrazin-8-one] |  |  |  |
| > 10 µM | > 100 µM | 40.8 µM | Cc1c(C)n2c(C3(C)CC3)nnc2c(=O)n1CC1CCCCO1 (single isomer, unassigned) [Example 14, 5,6-Dimethyl-3-(1-methylcyclopropyl)-7-(tetrahydropyran-2-ylmethyl)-[1,2,4]triazolo[4,3-a]pyrazin-8-one] |  |  |  |

| Structure (SMILES) | IC50 (human PDE6A/6B) | IC50 [1] | IC50 (human PDE4D) | IC50 (human PDE1C) | IC50 (human PDE1A) | IC50 (human PDE1B) |
| --- | --- | --- | --- | --- | --- | --- |
| Cn1cc(Cc2cn3c(C4(C5CC5)CC4)nnc3c(=O)n2CC2CC2)cn1 [Example 1, 3-(1-Cyclopropylcyclopropyl)-7-(cyclopropylmethyl)-6-[(1-methylpyrazol-4-yl)methyl]-[1,2,4]triazolo[4,3-a]pyrazin-8-one] | > 10 µM | > 100 µM | 5.59 µM | 0.012 ± 0.004 µM | 0.0203 ± 0.0005 µM | 0.0294 ± 0.0116 µM |
| Cc1c(C)n2c(C3(C4CC4)CC3)nnc2c(=O)n1CC1CC1 [Example 2, 3-(1-Cyclopropylcyclopropyl)-7-(cyclopropylmethyl)-5,6-dimethyl-[1,2,4]triazolo[4,3-a]pyrazin-8-one] | > 10 µM | > 100 µM | 23.8 ± 0.8 µM | 0.00281 ± 0.00088 µM | 0.00373 ± 0.00202 µM | 0.00411 ± 0.0011 µM |
| CCCCCn1c(C)c(C)n2c(C3(C4CC4)CC3)nnc2c1=O [Example 3, 3-(1-Cyclopropylcyclopropyl)-5,6-dimethyl-7-pentyl-[1,2,4]triazolo[4,3-a]pyrazin-8-one] | > 10 µM | > 100 µM | 14.3 µM | 0.00126 ± 0.00061 µM | 0.011 ± 0.002 µM | 0.00936 ± 0.00201 µM |
| Cc1c(C)n2c(C3(C4CC4)CC3)nnc2c(=O)n1CC1CCC1 [Example 4, 7-(Cyclobutylmethyl)-3-(1-cyclopropylcyclopropyl)-5,6-dimethyl-[1,2,4]triazolo[4,3-a]pyrazin-8-one] | > 10 µM | > 100 µM | 24 µM | 0.00106 ± 0.00024 µM | 0.00371 ± 8e-05 µM | 0.00365 ± 0.00188 µM |
| CCCCn1c(C)c(C)n2c(C3(C4CC4)CC3)nnc2c1=O [Example 5, 7-Butyl-3-(1-cyclopropylcyclopropyl)-5,6-dimethyl-[1,2,4]triazolo[4,3-a]pyrazin-8-one] | > 10 µM | > 100 µM | 29.9 µM | 0.0027 ± 0.00016 µM | 0.0115 ± 0.0036 µM | 0.0111 ± 0.003 µM |
| Cc1c(C)n2c(C3(C4CC4)CC3)nnc2c(=O)n1CC1(C)CC1 [Example 15, 3-(1-Cyclopropylcyclopropyl)-5,6-dimethyl-7-[(1-methylcyclopropyl)methyl]-[1,2,4]triazolo[4,3-a]pyrazin-8-one] | > 10 µM | 9.6 µM | 14 ± 1.3 µM | 0.0014 ± 0.0003 µM | 0.0031 ± 0.0011 µM | 0.0049 ± 0.0018 µM |
| CCCCn1c(C)c(CC)n2c(C3(C4CC4)CC3)nnc2c1=O [Example 16, 7-Butyl-3-(1-cyclopropylcyclopropyl)-5-ethyl-6-methyl-[1,2,4]triazolo[4,3-a]pyrazin-8-one] | > 10 µM | > 100 µM | 22.3 µM | 0.0012 ± 0.00094 µM | 0.00867 ± 0.00791 µM | 0.00654 ± 0.00261 µM |
